Data from patent US8524755B2 (priority 2009, dated 2013).

How the values were obtained:
Adenosine A3 (h) = molecular target: T1, Adenosine A3 (h) (Homo sapiens, UniProt P0DMS8); experiment: Binding A3 (h) (ag); details: read-out: % Inhibition of Control Specific Binding @ 10 μM
T1 construct: expressed in transfected cells; host or cells: HEK-293 cells
T1 sequence (P0DMS8 1-318): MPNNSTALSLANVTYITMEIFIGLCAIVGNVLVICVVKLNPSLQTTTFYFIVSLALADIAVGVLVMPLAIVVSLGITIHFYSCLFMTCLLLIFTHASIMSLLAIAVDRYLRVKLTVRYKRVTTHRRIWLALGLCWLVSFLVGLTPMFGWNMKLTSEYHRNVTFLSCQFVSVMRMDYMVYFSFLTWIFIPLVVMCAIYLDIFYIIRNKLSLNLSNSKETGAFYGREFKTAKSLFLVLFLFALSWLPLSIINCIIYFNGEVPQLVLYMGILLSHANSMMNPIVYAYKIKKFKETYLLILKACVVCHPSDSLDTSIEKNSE
Method: (§1) Radioligand binding assay methods utilized to measure the activity of compounds of the invention will be familiar to those skilled in the art. In each assay case, the assay components such as, for example, the cell-type, ligand, reference compound and the like, will be familiar to practitioners of such an assay.
(§2) Analysis and Expression of Results: Compounds of the invention were tested in the biochemical assays and percent inhibition of specific binding was determined. The specific ligand binding to the receptors is defined as the difference between the total binding and the nonspecific binding determined in the presence of an excess of unlabelled ligand. The results are expressed as a percent inhibition of control specific binding (100−((measured specific binding/control specific binding)×100)) obtained in the presence of test compounds.

β2 (h) = molecular target: T2, β2 (h) (Homo sapiens, UniProt P07550); experiment: Binding β2 (h) (ag); details: read-out: % Inhibition of Control Specific Binding @ 10 μM
T2 construct: expressed in transfected cells; host or cells: CHO cells
Method: as §1, §2

Dopamine D1 (h) = molecular target: T3, Dopamine D1 (h) (Homo sapiens, UniProt P21728); experiment: Binding D1 (h) (aa); details: read-out: % Inhibition of Control Specific Binding @ 10 μM
T3 construct: expressed in transfected cells; host or cells: CHO cells
Method: as §1, §2

AMPA = experiment: Binding AMPA (ag); parameters: species or system rat
Method: as §1, §2

NMDA = experiment: Binding NMDA (aa); parameters: species or system rat
Method: as §1, §2

Neurokinin NK3 (h) = molecular target: T4, Neurokinin NK3 (h) (Homo sapiens, UniProt P29371); experiment: Binding NK3 (h) (aa); details: read-out: % Inhibition of Control Specific Binding @ 10 μM
T4 construct: expressed in transfected cells; host or cells: CHO cells
T4 sequence (P29371 1-465): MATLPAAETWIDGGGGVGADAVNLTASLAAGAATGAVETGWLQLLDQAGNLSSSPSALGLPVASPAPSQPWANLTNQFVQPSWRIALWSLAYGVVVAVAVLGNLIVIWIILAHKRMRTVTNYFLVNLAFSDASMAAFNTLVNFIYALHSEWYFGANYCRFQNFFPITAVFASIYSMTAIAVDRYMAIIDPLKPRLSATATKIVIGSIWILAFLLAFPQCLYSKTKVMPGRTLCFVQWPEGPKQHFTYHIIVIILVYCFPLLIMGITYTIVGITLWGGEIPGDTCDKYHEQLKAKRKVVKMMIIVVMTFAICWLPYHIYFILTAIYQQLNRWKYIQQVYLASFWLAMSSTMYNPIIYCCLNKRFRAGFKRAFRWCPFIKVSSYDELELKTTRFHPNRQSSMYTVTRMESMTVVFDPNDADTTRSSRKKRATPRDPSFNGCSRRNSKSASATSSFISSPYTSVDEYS
Method: as §1, §2

Progesterone PR (h) = experiment: Binding PR (h) (ag); parameters: species or system human
Method: as §1, §2

[1] = molecular target: T5, norepinephrine transporter (h) (Homo sapiens, UniProt P23975); experiment: Binding norepinephrine transporter (h) (aa); details: read-out: % Inhibition of Control Specific Binding @ 10 μM
T5 construct: expressed in transfected cells; host or cells: CHO cells
Method: as §1, §2

MAO-A (h) = molecular target: T6, MAO-A (h) (Homo sapiens, UniProt P21397); experiment: Enzyme assay MAO-A (h); type: biochemical; details: read-out: % Inhibition of Control Values @ 10 μM
T6 construct: human placenta; from tissue; host or cells: human placenta
T6 sequence (P21397 1-527): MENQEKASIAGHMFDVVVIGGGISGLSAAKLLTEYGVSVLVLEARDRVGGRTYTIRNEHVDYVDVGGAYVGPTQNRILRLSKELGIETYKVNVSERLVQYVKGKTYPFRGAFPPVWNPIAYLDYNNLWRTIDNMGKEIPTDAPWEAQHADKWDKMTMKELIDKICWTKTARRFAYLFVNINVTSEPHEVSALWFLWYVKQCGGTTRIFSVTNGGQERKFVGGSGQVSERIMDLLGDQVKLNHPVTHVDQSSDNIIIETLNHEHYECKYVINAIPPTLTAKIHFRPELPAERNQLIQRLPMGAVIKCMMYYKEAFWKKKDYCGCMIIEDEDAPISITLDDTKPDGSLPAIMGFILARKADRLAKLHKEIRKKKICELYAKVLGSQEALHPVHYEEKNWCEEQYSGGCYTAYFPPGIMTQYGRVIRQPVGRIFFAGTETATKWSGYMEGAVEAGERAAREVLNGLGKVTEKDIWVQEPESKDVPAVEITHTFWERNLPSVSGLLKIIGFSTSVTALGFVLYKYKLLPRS
Text: (§3) The enzyme assays provided below will be familiar to those skilled in the art.
(§4) Analysis and Expression of Results: The results are expressed as a percent of control specific activity ((measured specific activity/control specific activity)×100) obtained in the presence of the test compounds.

MAO-B (h) = molecular target: T7, MAO-B (h) (Homo sapiens, UniProt P27338); experiment: Enzyme assay MAO-B (h); type: biochemical; details: read-out: % Inhibition of Control Values @ 10 μM
T7 construct: human platelets; from tissue; host or cells: human platelets
T7 sequence (P27338 1-520): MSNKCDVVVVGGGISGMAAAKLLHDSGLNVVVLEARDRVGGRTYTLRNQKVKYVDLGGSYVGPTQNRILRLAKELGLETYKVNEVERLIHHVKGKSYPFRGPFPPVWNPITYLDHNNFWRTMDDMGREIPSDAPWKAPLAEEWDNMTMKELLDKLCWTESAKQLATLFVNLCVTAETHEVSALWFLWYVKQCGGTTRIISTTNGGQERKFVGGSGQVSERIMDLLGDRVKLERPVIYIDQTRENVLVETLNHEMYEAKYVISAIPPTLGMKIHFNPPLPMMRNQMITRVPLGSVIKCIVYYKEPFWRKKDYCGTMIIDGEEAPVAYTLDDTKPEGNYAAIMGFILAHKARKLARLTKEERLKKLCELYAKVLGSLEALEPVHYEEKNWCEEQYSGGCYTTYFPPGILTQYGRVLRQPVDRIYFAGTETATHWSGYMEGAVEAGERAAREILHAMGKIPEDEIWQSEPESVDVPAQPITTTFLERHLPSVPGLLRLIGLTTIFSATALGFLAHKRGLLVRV
Text: as §3, §4

T5 sequence (P23975 whole entry): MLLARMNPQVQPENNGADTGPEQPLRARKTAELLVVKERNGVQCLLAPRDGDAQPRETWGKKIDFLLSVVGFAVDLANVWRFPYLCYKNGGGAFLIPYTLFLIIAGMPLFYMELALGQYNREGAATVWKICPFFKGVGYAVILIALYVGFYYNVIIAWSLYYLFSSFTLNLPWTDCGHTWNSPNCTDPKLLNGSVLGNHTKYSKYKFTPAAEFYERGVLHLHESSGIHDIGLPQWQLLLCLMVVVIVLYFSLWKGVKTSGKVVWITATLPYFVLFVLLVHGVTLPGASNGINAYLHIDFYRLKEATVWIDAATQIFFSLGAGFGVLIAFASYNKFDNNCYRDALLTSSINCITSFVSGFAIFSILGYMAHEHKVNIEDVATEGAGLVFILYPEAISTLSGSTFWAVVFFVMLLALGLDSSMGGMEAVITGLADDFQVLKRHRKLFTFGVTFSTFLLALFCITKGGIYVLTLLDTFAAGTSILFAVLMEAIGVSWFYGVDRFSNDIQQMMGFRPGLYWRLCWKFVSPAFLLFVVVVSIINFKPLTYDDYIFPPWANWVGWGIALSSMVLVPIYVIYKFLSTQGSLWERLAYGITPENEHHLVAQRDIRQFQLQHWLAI
T3 sequence (P21728 whole entry): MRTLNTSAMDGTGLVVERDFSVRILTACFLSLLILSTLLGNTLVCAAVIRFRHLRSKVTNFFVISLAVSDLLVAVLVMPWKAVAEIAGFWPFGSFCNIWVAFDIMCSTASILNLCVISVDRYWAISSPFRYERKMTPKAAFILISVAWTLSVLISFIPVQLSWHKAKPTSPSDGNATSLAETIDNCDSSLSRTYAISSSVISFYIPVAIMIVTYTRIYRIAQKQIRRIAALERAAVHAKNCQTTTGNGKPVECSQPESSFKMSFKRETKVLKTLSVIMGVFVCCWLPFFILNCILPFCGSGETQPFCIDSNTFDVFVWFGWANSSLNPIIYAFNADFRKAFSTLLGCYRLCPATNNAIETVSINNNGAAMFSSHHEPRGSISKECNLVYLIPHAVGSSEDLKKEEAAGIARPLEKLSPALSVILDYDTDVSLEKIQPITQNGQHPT
T2 sequence (P07550 whole entry): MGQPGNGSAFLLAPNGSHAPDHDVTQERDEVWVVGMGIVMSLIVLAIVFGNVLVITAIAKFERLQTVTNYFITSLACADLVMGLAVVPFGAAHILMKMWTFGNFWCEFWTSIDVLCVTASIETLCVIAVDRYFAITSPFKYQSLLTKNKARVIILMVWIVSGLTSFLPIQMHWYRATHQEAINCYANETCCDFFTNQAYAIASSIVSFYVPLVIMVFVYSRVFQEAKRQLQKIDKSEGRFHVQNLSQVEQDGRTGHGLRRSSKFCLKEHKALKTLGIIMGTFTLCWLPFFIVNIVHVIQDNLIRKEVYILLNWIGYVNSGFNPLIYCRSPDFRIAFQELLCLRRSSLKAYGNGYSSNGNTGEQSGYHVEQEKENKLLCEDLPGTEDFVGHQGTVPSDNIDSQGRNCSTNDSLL

Row | SMILES | inhibition at 10 µM (Adenosine A3 (h)) [%] | inhibition at 10 µM (β2 (h)) [%] | inhibition at 10 µM (Dopamine D1 (h)) [%] | % Inhibition of Control Specific Binding @ 10 μM (AMPA) [%] | % Inhibition of Control Specific Binding @ 10 μM (NMDA) [%] | inhibition at 10 µM (Neurokinin NK3 (h)) [%] | % Inhibition of Control Specific Binding @ 10 μM (Progesterone PR (h)) [%] | inhibition at 10 µM [1] [%] | inhibition at 10 µM (MAO-A (h)) [%] | inhibition at 10 µM (MAO-B (h)) [%]
1 | CC1(C)C(=O)N(c2ccc(C#N)c(C(F)(F)F)c2)C(=S)N1c1ccc(C(=O)O)c(F)c1 [(MI), 4-(3-(4-cyano-3-(trifluoromethyl)phenyl)-5,5-dimethyl-4-oxo-2-thioxoimidazolidin-1-yl)-2-fluorobenzoic acid] | 69 | 6 | -18 | 1 | 2 | -11 | 23 | 56 | -5 | 8
2 | CC1(C)C(=O)N(c2ccc(C#N)c(C(F)(F)F)c2)C(=S)N1c1ccc(C(N)=O)c(F)c1 [(MII), 4-(3-(4-Cyano-3-(trifluoromethyl)phenyl)-5,5-dimethyl-4-oxo-2-thioxoimidazolidin-1-yl)-2-fluorobenzamide] | 17 | -3 | -14 | −10 | 5 | 3 | 74 | -13 | 0 | -4
3 | CC1(C)C(=O)N(c2ccc(C#N)c(C(F)(F)F)c2)C(=O)N1c1ccc(C(N)=O)c(F)c1 [(MIII), 4-(3-(4-cyano-3-(trifluoromethyl)phenyl)-5,5-dimethyl-2,4-dioxoimidazolidin-1-yl)-2-fluorobenzamide] | 11 | -6 | -17 | −2 | 0 | -2 | 8 | 9 | 14 | -5
4 | CNC(=O)c1ccc(N2C(=O)N(c3ccc(C#N)c(C(F)(F)F)c3)C(=O)C2(C)C)cc1F [(MIV), 4-(3-(4-cyano-3-(trifluoromethyl)phenyl)-5,5-dimethyl-2,4-dioxoimidazolidin-1-yl)-2-fluoro-N-methylbenzamide] | 50 | -10 | -17 | −4 | −41 | -7 | 11 | 20 | 11 | 11
